The text below walks through data of patent US20180291335A1, “MODIFIED POLYNUCLEOTIDES FOR ALTERING CELL PHENOTYPE” (ModernaTX, Inc., priority 2012, published 2018).

In series [1] the test system is tumor necrosis factor alpha (TNF-α). The series is described as follows: In vitro screening in PBMC: tumor necrosis factor alpha induction by ELISA. Type of series: cell-based, human. The method in brief:
(§1)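 Culture supernatant was collected and kept frozen until analysis. ELISA on these samples measured secreted protein and cytokine induction.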
For orientation: ELISA stands for enzyme-linked immunosorbent assay.

For series [2], the system named is Balb-C mice. The series is described as follows: In vivo screening of luciferase modified mRNA, whole-body bioluminescence. The conditions noted are these: subcutaneous; for Luciferase expression (photon/second): 42 to 103 ug mRNA in 1×PBS, imaged 8 hours after dosing, total flux of entire mouse. The procedure:
(§2) A control of PBS was also tested. The dosages of the modified luciferase mRNA is also outlined in Table 22. 8 hours after dosing the mice were imaged to determine luciferase expression. Twenty minutes prior to imaging, mice were injected intraperitoneally with a D-luciferin solution at 150 mg/kg. Animals were then anesthetized and images were acquired with an IVIS Lumina II imaging system (Perkin Elmer). Bioluminescence was measured as total flux (photons/second) of the entire mouse.

In series [3] the test system is Rabbit Reticulocyte Lysate. The series is described as follows: In vitro screening in rabbit reticulocyte lysates, luciferase mRNA translation. Format: biochemical. The conditions noted are these: 250 ng luciferase mRNA, 60 minutes, 30° C. The procedure:
The diluted luciferase was added to 40 ul of freshly prepared Rabbit Reticulocyte Lysate and the in vitro translation reaction was done in a standard 1.5 mL polypropylene reaction tube (Thermo Fisher Scientific, Waltham, Mass.) at 30° C. in a dry heating block. The translation assay was done with the Rabbit Reticulocyte Lysate (nuclease-treated) kit (Promega, Madison, Wis.) according to the manufacturer's instructions. The reaction buffer was supplemented with a one-to-one blend of provided amino acid stock solutions devoid of either Leucine or Methionine resulting in a reaction mix containing sufficient amounts of both amino acids to allow effective in vitro translation.
After 60 minutes of incubation, the reaction was stopped by placing the reaction tubes on ice. Aliquots of the in vitro translation reaction containing luciferase modified RNA were transferred to white opaque polystyrene 96-well plates (Corning, Manassas, Va.) and combined with 100 ul complete luciferase assay solution (Promega, Madison, Wis.). The volumes of the in vitro translation reactions were adjusted or diluted until no more than 2 mio relative light units (RLUs) per well were detected for the strongest signal producing samples and the RLUs for each chemistry tested are shown in Table 20. The plate reader was a BioTek Synergy H1 (BioTek, Winooski, Vt.). The background signal of the plates without reagent was about 200 relative light units per well.

The test system of series [4] is human embryonic kidney 293 (HEK293) cells. The series is described as follows: Cytotoxicity of NTPs, CYTO TOX-GLO assay. Type of series: cell-based. As for the experimental part: The cytotoxicity of natural and modified nucleoside triphosphates (NTPs) alone or in combination with other bases, was analyzed in human embryonic kidney 293 (HEK293) cells in the absence of transfection reagent. […] 10 ul of the NTPs outlined in Table 12 were combined with 10 ul of lipid dilution and incubated for 30 minutes to form a complex before 80 ul of the HEK293 cell suspension was added to the NTP complex.
Natural and modified NTPs were transfected at a concentration of 2.1 nM, 21 nM, 210 nM, 2.1 um, 21 uM, 210 um or 2.1 mM. NTPs in combination were transfected at a total concentration of NTPs of 8.4 nM, 84 nM, 840 nM, 8.4 uM, 84 uM, 840 uM and 8.4 mM. […] The cytotoxicity of the NTPs and the modified G-CSF mRNA was assayed at 4, 24, 48 and 72 hours post addition to the HEK293 cells using a CYTO TOX-GLO™ assay from Promega (Madison, Wis.) following the manufacturer protocol except pippeting was used for lysing the cells instead of shaking the plates.

The next series has as its system rabbit reticulysates. The series is described as follows: G-CSF modified mRNA in rabbit reticulysates, G-CSF ELISA. Type of series: biochemical. The conditions noted are these: 250 ng of modified mRNA. The method in brief: (§3)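 Human G-CSF mRNAs bearing various chemical modifications, made with a mutant T7 polymerase, were either transfected into HeLa cells or added to rabbit reticulocyte lysate at 250 ng mRNA. G-CSF protein was quantified by ELISA.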

In series [5] the test system is peripheral blood mononuclear cells (PBMC). The experiment in a line: In vitro screening in PBMC: G-CSF protein expression by ELISA. Type of series: cell-based, human. The method in brief: as §1
Another series concerns interferon-alpha (IFN-α). The series is described as follows: In vitro screening in PBMC: interferon-alpha induction by ELISA. Format: cell-based, human. The gist of the method:
as §1

Series [6] has as its system HeLa cells. The experiment in a line: G-CSF modified mRNA transfected in HeLa cells, G-CSF ELISA. Type of series: cell-based, human. The conditions noted are these: HeLa cells, ELISA. The method in brief: as §3
Series [7] has as its system HeLa cells. The series is described as follows: In vitro screening in HeLa cells, luciferase modified RNA. Format: cell-based, human. The conditions noted are these: HeLa cells, 83 ng luciferase modified RNA, 18 to 22 hours.
The subject of series [8] is HeLa cells. The series is described as follows: Luciferase in HeLa cells using a combination of modifications. The conditions noted are these: 83 ng luciferase modified RNA, 18 to 22 hours. Type of series: cell-based, human. As for the experimental part:
To evaluate using of 2′fluoro-modified mRNA in combination with other modification a series of mRNA were transcribed using either wild-type T7 polymerase (non-fluoro-containing compounds) or using mutant T7 polymerases (fluyoro-containing compounds) as described in Example 86. All modified mRNA were tested by in vitro transfection in HeLa cells.
The day before transfection, 20,000 HeLa cells (ATCC no. CCL-2; Manassas, Va.) were harvested by treatment with Trypsin-EDTA solution (LifeTechnologies, Grand Island, N.Y.) and seeded in a total volume of 100 ul EMEM medium (supplemented with 10% FCS and 1× Glutamax) per well in a 96-well cell culture plate (Corning, Manassas, Va.). The cells were grown at […] in 5% CO2 atmosphere overnight. […] Lipofectamine 2000 (LifeTechnologies, Grand Island, N.Y.) was used as transfection reagent and 0.2 ul were diluted in 10 ul final volume of OPTI-MEM. After 5 minutes of incubation at room temperature, both solutions were combined and incubated an additional 15 minute at room temperature. Then the 20 ul combined solution was added to the 100 ul cell culture medium containing the HeLa cells and incubated at room temperature.
After 18 to 22 hours of incubation cells expressing luciferase were lysed with 100 ul of Passive Lysis Buffer (Promega, Madison, Wis.) according to manufacturer instructions. Aliquots of the lysates were transferred to white opaque polystyrene 96-well plates (Corning, Manassas, Va.) and combined with 100 ul complete luciferase assay solution (Promega, Madison, Wis.). The lysate volumes were adjusted or diluted until no more than 2 mio relative light units (RLU) per well were detected for the strongest signal producing samples and the RLUs for each chemistry tested are shown in Table 26. The plate reader was a BioTek Synergy H1 (BioTek, Winooski, Vt.). The background signal of the plates without reagent was about 200 relative light units per well.

Series [9] has as its system Balb-C mice. The series is described as follows: In vivo screening of combination luciferase modified mRNA, whole-body bioluminescence. The conditions noted are these: subcutaneous, 100 ug mRNA in 1×PBS, imaged 8 hours after dosing. The procedure: as §2
Series [10] relates to HeLa cells. The experiment in a line: 2′Fluoro luciferase mRNA transfection in HeLa cells. Type of series: cell-based, human. The conditions noted are these: 83 ng 2′fluoro-containing luciferase RNA, 18 to 22 hours. As for the experimental part:
The 2′Fluoro-modified mRNA were then transfected into HeLa cells to assess protein production in a cell context and the same mRNA were also assessed in a cell-free rabbit reticulocyte system. A control of unmodified luciferase (natural luciferase) was used for both transcription experiments, a control of untreated and mock transfected (Lipofectamine 2000 alone) were also analyzed for the HeLa transfection and a control of no RNA was analyzed for the rabbit reticulysates.
For the HeLa transfection experiments, the day before transfection, 20,000 HeLa cells (ATCC no. CCL-2; Manassas, Va.) were harvested by treatment with Trypsin-EDTA solution (LifeTechnologies, Grand Island, N.Y.) and seeded in a total volume of 100 ul EMEM medium (supplemented with 10% FCS and 1× Glutamax) per well in a 96-well cell culture plate (Corning, Manassas, Va.). The cells were grown at […] in 5% CO2 atmosphere overnight. […] Lipofectamine 2000 (LifeTechnologies, Grand Island, N.Y.) was used as transfection reagent and 0.2 ul were diluted in 10 ul final volume of OPTI-MEM. […] The lysate volumes were adjusted or diluted until no more than 2 mio relative light units (RLU) per well were detected for the strongest signal producing samples and the RLUs for each chemistry tested are shown in Table 24. The plate reader was a BioTek Synergy H1 (BioTek, Winooski, Vt.). […]

The test system of series [11] is Rabbit Reticulocyte Lysate. The experiment in a line: 2′Fluoro luciferase mRNA in rabbit reticulocyte lysate assay. Format: biochemical. Conditions: Rabbit reticulysates, 250 ng luciferase mRNA, 60 minutes. The procedure:
For the rabbit reticulocyte lysate assay, 2′-fluoro-containing luciferase mRNA were diluted in sterile nuclease-free water to a final amount of 250 ng in 10 ul and added to 40 ul of freshly prepared Rabbit Reticulocyte Lysate and the in vitro translation reaction was done in a standard 1.5 mL polypropylene reaction tube (Thermo Fisher Scientific, Waltham, Mass.) at 30° C. in a dry heating block. The translation assay was done with the Rabbit Reticulocyte Lysate (nuclease-treated) kit (Promega, Madison, Wis.) according to the manufacturer's instructions. The reaction buffer was supplemented with a one-to-one blend of provided amino acid stock solutions devoid of either Leucine or Methionine resulting in a reaction mix containing sufficient amounts of both amino acids to allow effective in vitro translation. […]
Aliquots of the in vitro translation reaction containing luciferase modified RNA were transferred to white opaque polystyrene 96-well plates (Corning, Manassas, Va.) and combined with 100 ul complete luciferase assay solution (Promega, Madison, Wis.). The volumes of the in vitro translation reactions were adjusted or diluted until no more than 2 mio relative light units (RLUs) per well were detected for the strongest signal producing samples and the RLUs for each chemistry tested are shown in Tables 24 and 25. The plate reader was a BioTek Synergy H1 (BioTek, Winooski, Vt.). […]

[12] abbreviates: PBMC Donor 1, 500 ng G-CSF mRNA.
The mark [13] stands for this setting: PBMC Donor 2, 500 ng G-CSF mRNA.
Where [14] appears, read: PBMC Donor 3, 500 ng G-CSF mRNA.

Consider `O=c1[nH]cc([C@@H]2O[C@H](CO)[C@@H](O)[C@H]2O)c(=O)[nH]1` [Pseudouridine], for which the results for the “TNF-α Expression” value in series [1] (setting [12]), in [1] (setting [13]) and in [1] (setting [14]) were 36 pg/mL, 81 pg/mL and 126 pg/mL, respectively. For the same compound, the “Luciferase expression (photon/second)” value in the series on Balb-C mice [2] was 1.36E+07 photon/second. Also, the RLU in series [3] is 587,795 RLU; with HeLa cells [7] it was 655,632 RLU. Moreover, in [4], the “toxicity as compared to the untreated cells” value is reported as “not toxic”. The “G-CSF protein (pg/ml) Rabbit reticulysates cells” value in the series on rabbit reticulysates is recorded as 147,875 pg/ml. Further, the “G-CSF Protein Expression” value in series [5] (setting [12]) was 2477 pg/mL; in [5] (setting [13]), 1,909 pg/ml; in series [5] (setting [14]), 1,498 pg/ml. Moreover, the “IFN-α Expression” value is 120 pg/mL with interferon-alpha (IFN-α) (setting [12]), 77 pg/mL in the series on interferon-alpha (IFN-α) (setting [13]) and 171 pg/mL in the series with interferon-alpha (IFN-α) (setting [14]). Besides, the cytokine induction entry with interferon-alpha (IFN-α) (PBMC, G-CSF mRNA, result in words) is on record as “detectable cytokine induction which is above background”. Moreover, in the series with HeLa cells [6] (G-CSF mRNA), the “G-CSF protein (pg/ml) HeLa cells” value is reported as 1,150,909 pg/ml.

As for “5-methylcytidine/where 50% of the uridine is replaced with 2-thiouridine: Luciferase mRNA (SEQ ID NO: 409) with 5-methylcytidine and 50% of the uridine replaced with 2-thiouridine”, the RLU in the series with HeLa cells [8] is recorded as 41,601 RLU. Moreover, the “Luciferase expression (photon/second)” value in the series with Balb-C mice [9] was 2.39E+06 photon/second.

For “2′-flurorouridine: Luciferase mRNA (SEQ ID NO: 409) fully modified with 2′-fluorouridine”, the RLU with HeLa cells [8] turned out to be 305 RLU; with HeLa cells [10] it was 6767.5 RLU; in series [11] it was 258 RLU. Also, the “Luciferase expression (photon/second)” value in the series on Balb-C mice [2] was found to be 3.47E+05 photon/second. In addition, the in vivo activity result with Balb-C mice [2] (luciferase mRNA, result in words) is given as “exception”. Moreover, in the series on HeLa cells [6] (combination chemistries), the “G-CSF protein (pg/ml) HeLa cells” value turned out to be 0 pg/mL.
